pIC50: −log10 of the molar value.

The record followed here is ChEMBL document CHEMBL1134483, “Quinazolin-4-one alpha-amino-3-hydroxy-5-methyl-4-isoxazolepropionic acid (AMPA) receptor antagonists: structure-activity relationship of the C-2 side chain tether” (J Med Chem, 2001).

For the assay, the target named is Glutamate receptor ionotropic, AMPA (Rattus norvegicus, UniProt P19490+P19491+P19492+P19493). Put plainly: Inhibition of Ca 2+ Influx in cultured rat cerebellar granule cells, mediated by ionotropic glutamate receptor AMPA. It counts as functional.
Broadly, the pIC50 is the IC50 on a negative log10 scale, so that one unit is a factor of ten. A higher pIC50 goes with a small IC50. `O=c1c2cc(F)ccc2nc(/C(O)=C/c2ccccc2F)n1-c1ccccc1Cl` had a pIC50 of under 4.52.

As for `O=c1c2cc(F)ccc2nc(CC(O)c2ccccc2F)n1-c1ccccc1Cl` (stereo in doubt; 3a), the pIC50 was 6.62.

Take `O=c1c2cc(F)ccc2nc(CNc2ccccc2F)n1-c1ccccc1Cl`: the pIC50 was 7.89. This pIC50 is 1.27 log units higher than that of the compound before.

`O=c1c2cc(F)ccc2nc(CC(O)c2ccccc2F)n1-c1ccccc1Cl` (stereo in doubt; 3b) showed a pIC50 of under 5.52.

The compound `Cc1cccc(NCc2nc3ccc(F)cc3c(=O)n2-c2ccccc2Cl)c1` showed a pIC50 of 6.67.

Take `CC(=O)N(Cc1nc2ccc(F)cc2c(=O)n1-c1ccccc1Cl)c1ccccc1F`: the pIC50 was under 5.52.

The compound `O=c1c2cc(F)ccc2nc(COc2ccccc2F)n1-c1ccccc1Cl` had a pIC50 of under 5.00.

For the compound `O=c1c2cc(F)ccc2nc(CNCc2ccccc2F)n1-c1ccccc1Cl`, the pIC50 is under 6.52.

On to `CN(Cc1nc2ccc(F)cc2c(=O)n1-c1ccccc1Cl)c1ccccc1F`, for which the pIC50 was 5.70.

`N#Cc1ccccc1NCc1nc2ccc(F)cc2c(=O)n1-c1ccccc1Cl`: the pIC50 was 7.38. This pIC50 lies 1.68 log units higher than the previous one.
